In paper PMC8323099 (Journal of Agricultural and Food Chemistry, 2021):

Molecular target: T1, Pru p 1.0101 (Prunus persica, UniProt Q2I6V8)
T1 construct: gene ypr-10
Test: biochemical

T1 sequence (Q2I6V8 1-160): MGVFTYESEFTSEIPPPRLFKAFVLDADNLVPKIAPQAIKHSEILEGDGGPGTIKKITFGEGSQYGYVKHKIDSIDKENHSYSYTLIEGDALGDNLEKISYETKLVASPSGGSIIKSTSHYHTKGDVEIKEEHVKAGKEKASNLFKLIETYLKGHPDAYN

**Q.** `C/C(=C\CNc1ncnc2[nH]cnc12)CO` [trans-zeatin] was tested. Which Kd did it give?
**A.** 1900 ± 400 µM
